In patent publication US20050282840A1, “Methods of modulating neurotrophin-mediated activity” (PainCeptor Pharma Corporation, priority 2004, published 2005):
Where two headings read alike, the source gives them in different places.

Tests used:
[1] = test system: p75^NTR receptors (PC12 cells); test: Basic screening assay: binding of 125I-NGF to PC12 cells; settings: test compound 50 μM, 0.5 nM 125I-NGF, PC12 cells, 2 h at 4° C., specific binding as percent of control
In short: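 Inhibition of 0.5 nM 125I-NGF binding to p75NTR on PC12 cells was measured with compounds at 50 μM during 2 h rotation at 4° C. Cell-bound radioactivity from glycerol-cushion centrifugation was gamma-counted, giving NSB-corrected binding as % of control specific binding.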

[2] = target: T1, p75^NTR receptors (PC12 cells) (Rattus norvegicus, UniProt P07174); test: Basic screening assay: binding of 125I-BDNF to PC12 cells; settings: read-out: BDNF Activity % Maximal Binding
T1 construct: endogenous in cells; host or cells: PC12 cells
T1 sequence (P07174 30-425): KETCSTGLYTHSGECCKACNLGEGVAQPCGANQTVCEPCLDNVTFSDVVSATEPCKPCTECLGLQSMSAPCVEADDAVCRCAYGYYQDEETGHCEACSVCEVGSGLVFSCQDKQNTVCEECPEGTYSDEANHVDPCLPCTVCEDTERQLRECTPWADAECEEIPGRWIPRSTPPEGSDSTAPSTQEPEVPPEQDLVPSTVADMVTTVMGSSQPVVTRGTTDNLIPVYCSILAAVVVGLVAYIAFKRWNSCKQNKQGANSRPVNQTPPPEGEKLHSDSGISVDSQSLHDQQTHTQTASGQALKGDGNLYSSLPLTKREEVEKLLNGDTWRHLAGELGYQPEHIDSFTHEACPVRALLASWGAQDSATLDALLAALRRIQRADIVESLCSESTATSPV
T1 sequence (P23560 129-247 partner): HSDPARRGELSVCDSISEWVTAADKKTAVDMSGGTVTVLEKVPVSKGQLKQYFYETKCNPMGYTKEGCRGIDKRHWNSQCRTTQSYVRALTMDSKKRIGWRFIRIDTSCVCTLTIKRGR
In short: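 4×10^6 PC12 cells incubated 2 h at 4° C, rotating, with 0.5 nM ^125I-BDNF (final) and compound at 50 μM, in duplicate or more. Bound ligand separated through 10% glycerol by centrifugation and counted by gamma counter; specific binding is Bmax minus NSB; inhibitors followed up for EC50.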

[3] = Table 4, test compound 50 μM, 0.5 nM 125I-BDNF, PC12 cells, 2 h at 4° C., specific binding as percent of control
[4] = Table 1, test compound 50 μM, 0.5 nM 125I-BDNF, PC12 cells, 2 h at 4° C., specific binding as percent of control
[5] = Table 2, test compound 50 μM, 0.5 nM 125I-BDNF, PC12 cells, 2 h at 4° C., specific binding as percent of control

SMILES	NGF Activity % Maximal Binding ([1]; Table 4)	activity at 50 µM [2, 3]	NGF Activity % Maximal Binding ([1]; Table 1)	activity at 50 µM [2, 4]	other results
COc1cc([N+](=O)[O-])ccc1-c1ccc(C=C2C(=O)NN(c3cccc(C)c3)C2=O)o1 [Compound 138, 4-[5-(2-Methoxy-4-nitrophenyl)furan-2-ylmethylene]-1-m-tolyl-pyrazolidine-3,5-dione]	* (50 < *)	> 50%	–	–	–
CN1C(=O)NC(=O)C(=Cc2ccc(-c3ccc([N+](=O)[O-])cc3)o2)C1=O [Compound 39, 1-Methyl-5-[5-(4-nitrophenyl)furan-2-ylmethylene]-pyrimidine-2,4,6-trione]	–	–	* (50 < *)	–	activity at 50 µM [2]: 20 to 30%
COC(=O)c1ccc(-c2ccc(/C=C3/NC(=O)N(c4cccc(Cl)c4)C3=O)o2)c(C)c1 [Compound 135, 4-{5-[1-(3-Chlorophenyl)-2,5-dioxo-imidazolidin-4-ylidenemethyl]furan-2-yl}-3-methylbenzoic acid methyl ester]	* (50 < *)	> 50%	–	–	–
Cc1ccc([N+](=O)[O-])cc1-c1ccc(/C=C2/SC(=S)NC2=O)o1 [Compound 2, 5-[5-(2-Methyl-5-nitrophenyl)furan-2-ylmethylene]-2-thioxo-thiazolidin-4-one]	–	–	* (50 < *)	0 to 10%	–
CCOC(=O)CN1C(=O)S/C(=C\c2ccc(-c3ccc(Cl)c(C(=O)O)c3)o2)C1=O [Compound 115, 2-Chloro-5-[5-(3-ethoxycarbonylmethyl-2,4-dioxo-thiazolidin-5-ylidenemethyl)furan-2-yl]benzoic acid]	* (50 < *)	> 50%	–	–	–
CCOC(=O)c1ccc(-c2ccc(C=C3C(=O)NC(=S)NC3=O)o2)cc1 [Compound 99, 4-[5-(4,6-Dioxo-2-thioxo-tetrahydro-pyrimidin-5-ylidenemethyl)furan-2-yl]benzoic acid ethyl ester]	* (50 < *)	–	–	–	activity at 50 µM [2]: > 50%
CSC1=NC(=Cc2ccc(-c3ccc([N+](=O)[O-])cc3)o2)C(=O)S1 [Compound 111, 2-Methylsulfanyl-4-[5-(4-nitrophenyl)furan-2-ylmethylene]-4H-thiazol-5-one]	* (50 < *)	> 50%	–	–	–
Cc1cc(C(=O)O)ccc1-c1ccc(/C=C2\SC(=O)N(C)C2=O)o1 [Compound 76, 3-Methyl-4-[5-(3-methyl-2,4-dioxo-thiazolidin-5-ylidenemethyl)furan-2-yl]benzoic acid]	–	–	–	–	NGF Activity % Maximal Binding ([1]; Table 2): X (40 < X < 50); activity at 50 µM [2, 5]: 0 to 10%
Cc1cc(C(=O)O)ccc1-c1ccc(/C=C2/NC(=O)NC2=O)o1 [Compound 41, 4-[5-(2,5-Dioxo-imidazolidin-4-ylidenemethyl)furan-2-yl]-3-methylbenzoic acid]	–	–	* (50 < *)	20 to 30%	–
Cc1cccc(N2NC(=O)/C(=C/c3ccc(-c4ccc(Cl)c([N+](=O)[O-])c4)o3)C2=O)c1 [Compound 44, 4-[5-(4-Chloro-3-nitrophenyl)furan-2-ylmethylene]-1-m-tolyl-pyrazolidine-3,5-dione]	–	–	* (50 < *)	30 to 40%	–
O=C1NC(=S)S/C1=C/c1ccc(-c2ccc([N+](=O)[O-])cc2Cl)o1 [Compound 5, 5-[5-(2-Chloro-4-nitrophenyl)furan-2-ylmethylene]-2-thioxo-thiazolidin-4-one]	–	–	* (50 < *)	0 to 10%	–
CN1C(=O)S/C(=C/c2ccc(-c3ccc(C(=O)O)c(Cl)c3)o2)C1=O [Compound 80, 2-Chloro-4-[5-(3-methyl-2,4-dioxo-thiazolidin-5-ylidenemethyl)furan-2-yl]benzoic acid]	–	–	–	–	NGF Activity % Maximal Binding ([1]; Table 2): X (40 < X < 50); activity at 50 µM [2, 5]: 10 to 20%
COc1cc([N+](=O)[O-])ccc1-c1ccc(/C=C2\NC(=S)NC2=O)o1 [Compound 90, 5-[5-(2-Methoxy-4-nitrophenyl)furan-2-ylmethylene]-2-thioxo-imidazolidin-4-one]	* (50 < *)	> 50%	–	–	–
CCOC(=O)CN1C(=O)S/C(=C\c2ccc(-c3ccc([N+](=O)[O-])cc3C)o2)C1=O [Compound 61, {5-[5-(2-Methyl-4-nitrophenyl)furan-2-ylmethylene]-2,4-dioxo-thiazolidin-3-yl}-acetic acid ethyl ester]	–	–	* (50 < *)	40 to 50%	–
COc1ccc([N+](=O)[O-])cc1-c1ccc(/C=C2/NC(=O)N(c3ccccc3)C2=O)o1 [Compound 123, 5-[5-(2-Methoxy-5-nitrophenyl)furan-2-ylmethylene]-3-phenyl-imidazolidine-2,4-dione]	* (50 < *)	> 50%	–	–	–
CN1C(=O)/C(=C/c2ccc(-c3ccc(S(N)(=O)=O)cc3)o2)SC1=S [Compound 45, 4-[5-(3-Methyl-4-oxo-2-thioxo-thiazolidin-5-ylidenemethyl)furan-2-yl]benzenesulfonamide]	–	–	* (50 < *)	30 to 40%	–
N=C1NC(=O)C(=Cc2ccc(-c3ccc([N+](=O)[O-])cc3Br)o2)S1 [Compound 103, 5-[5-(2-Bromo-4-nitrophenyl)furan-2-ylmethylene]-2-imino-thiazolidin-4-one]	* (50 < *)	> 50%	–	–	–
CCCCOC(=O)c1ccc(-c2ccc(/C=C3/SC(=S)N(CC(=O)O)C3=O)o2)cc1 [Compound 12, 4-[5-(3-Carboxymethyl-4-oxo-2-thioxo-thiazolidin-5-ylidenemethyl)furan-2-yl]benzoic acid butyl ester]	–	–	* (50 < *)	0 to 10%	–
O=C1NC(=S)NC(=O)C1=Cc1ccc(-c2ccc([N+](=O)[O-])cc2Cl)o1 [Compound 4, 5-[5-(2-Chloro-4-nitrophenyl)furan-2-ylmethylene]-2-thioxo-dihydro-pyrimidine-4,6-dione]	–	–	* (50 < *)	–	activity at 50 µM [2]: 0 to 10%
Cc1cc([N+](=O)[O-])c(C)cc1-c1ccc(C=C2C(=O)NC(=O)NC2=O)o1 [Compound 18, 5-[5-(2,5-Dimethyl-4-nitrophenyl)furan-2-ylmethylene]-pyrimidine-2,4,6-trione]	–	–	* (50 < *)	–	activity at 50 µM [2]: 0 to 10%
O=C1NC(=S)N/C1=C\c1ccc(-c2cccc([N+](=O)[O-])c2)o1 [Compound 89, 5-[5-(3-Nitrophenyl)furan-2-ylmethylene]-2-thioxo-imidazolidin-4-one]	* (50 < *)	> 50%	–	–	–
Cc1ccc(-c2ccc(/C=C3/SC(=S)N(CC(=O)O)C3=O)o2)cc1[N+](=O)[O-] [Compound 14, {5-[5-(4-Methyl-3-nitrophenyl)furan-2-ylmethylene]-4-oxo-2-thioxo-thiazolidin-3-yl}-acetic acid]	–	–	* (50 < *)	0 to 10%	–
O=C1NC(=O)/C(=C\c2ccc(-c3ccc([N+](=O)[O-])cc3Cl)o2)S1 [Compound 33, 5-[5-(2-Chloro-4-nitrophenyl)furan-2-ylmethylene]-thiazolidine-2,4-dione]	–	–	* (50 < *)	10 to 20%	–
Cc1ccc(N2NC(=O)C(=Cc3ccc(-c4ccc([N+](=O)[O-])cc4Cl)o3)C2=O)cc1C [Compound 23, 4-[5-(2-Chloro-4-nitrophenyl)furan-2-ylmethylene]-1-(3,4-dimethylphenyl)-pyrazolidine-3,5-dione]	–	–	* (50 < *)	0 to 10%	–
O=C(O)c1ccc(Cl)c(-c2ccc(/C=C3/NC(=O)N(Cc4ccc(F)cc4)C3=O)o2)c1 [Compound 13, 4-Chloro-3-{5-[1-(4-fluorobenzyl)-2,5-dioxo-imidazolidin-4-ylidenemethyl]furan-2-yl}benzoic acid]	–	–	* (50 < *)	0 to 10%	–
O=C1NC(=O)C(=Cc2ccc(-c3ccc(Cl)c(C(=O)O)c3)o2)C(=O)N1 [Compound 75, 2-Chloro-5-[5-(2,4,6-trioxo-tetrahydro-pyrimidin-5-ylidenemethyl)furan-2-yl]benzoic acid]	–	–	–	–	NGF Activity % Maximal Binding ([1]; Table 2): X (40 < X < 50); activity at 50 µM [2]: 0 to 10%
